Experimental data: patent US6995143B2, “Macrolides with antibacterial activity” (Basilea Pharmaceutica AG, priority 2002, dated 2006)
In brackets after ≈: the same amount, converted by molar mass.

Tests used:
Assay type in all cases: cell-based
[1] = system: Staphylococcus aureus ATCC 29213; experiment: MIC, standard microdilution technique; conditions: for MIC: ATCC29213, read-out: minimum inhibitory concentration (MIC), Strain A
Source text: (§1) The antibacterial activities of the compounds have been determined by standard microdilution technique (National Committee for Clinical Laboratory Standards. 2000. Methods for Dilution Antimicrobial Susceptibility Tests for Bacteria that Grow Aerobically, 5th edition. Approved standard M7-A5. National Committee for Clinical Laboratory Standards, Wayne, Pa.).

[2] = system: Staphylococcus aureus 745; experiment: MIC, standard microdilution technique; conditions: for MIC: read-out: minimum inhibitory concentration (MIC), Strain C
Source text: as §1

[3] = system: Staphylococcus aureus 1086; experiment: MIC, standard microdilution technique; conditions: for MIC: read-out: minimum inhibitory concentration (MIC), Strain B
Source text: as §1

[4] = system: Streptococcus pneumoniae 12288; experiment: MIC, standard microdilution technique; conditions: for MIC: read-out: minimum inhibitory concentration (MIC), Strain H
Source text: as §1

[5] = system: Streptococcus pneumoniae l/l; experiment: MIC, standard microdilution technique; conditions: for MIC: read-out: minimum inhibitory concentration (MIC), Strain E
Source text: as §1

[6] = system: Streptococcus pneumoniae ¼; experiment: MIC, standard microdilution technique; conditions: for MIC: read-out: minimum inhibitory concentration (MIC), Strain F
Source text: as §1

[7] = system: Escherichia coli ATCC 25922; experiment: MIC, standard microdilution technique; conditions: for MIC: ATCC25922, read-out: minimum inhibitory concentration (MIC), Strain D
Source text: as §1

[8] = system: Streptococcus pneumoniae SL199T; experiment: MIC, standard microdilution technique; conditions: for MIC: read-out: minimum inhibitory concentration (MIC), Strain G
Source text: as §1

[9] = system: Haemophilus influenzae QK50; experiment: MIC, standard agar dilution method using HTM medium; conditions: for MIC: read-out: minimum inhibitory concentration (MIC), Strain L
Source text: as §1, with “biological” for “antibacterial”, “of compounds of” for “of”, “present invention against Haemophilus influenzae” for “compounds”, “agar dilution method using HTM medium” for “microdilution technique”

[10] = system: Haemophilus influenzae B1501; experiment: as above; conditions: for MIC: read-out: minimum inhibitory concentration (MIC), Strain M
Source text: as §1, with “biological” for “antibacterial”, “of compounds of” for “of”, “present invention against Haemophilus influenzae” for “compounds”, “agar dilution method using HTM medium” for “microdilution technique”

[11] = system: Haemophilus influenzae 12214; experiment: as above; conditions: for MIC: read-out: minimum inhibitory concentration (MIC), Strain K
Source text: as §1, with “biological” for “antibacterial”, “of compounds of” for “of”, “present invention against Haemophilus influenzae” for “compounds”, “agar dilution method using HTM medium” for “microdilution technique”

[12] = system: Haemophilus influenzae QK12/87; experiment: as above; conditions: for MIC: read-out: minimum inhibitory concentration (MIC), Strain I
Source text: as §1, with “biological” for “antibacterial”, “of compounds of” for “of”, “present invention against Haemophilus influenzae” for “compounds”, “agar dilution method using HTM medium” for “microdilution technique”

SMILES	minimum inhibitory concentration (MIC), Strain A [1]	minimum inhibitory concentration (MIC), Strain C [2]	minimum inhibitory concentration (MIC), Strain B [3]	minimum inhibitory concentration (MIC), Strain H [4]	minimum inhibitory concentration (MIC), Strain E [5]	minimum inhibitory concentration (MIC), Strain F [6]	minimum inhibitory concentration (MIC), Strain D [7]	minimum inhibitory concentration (MIC), Strain G [8]	minimum inhibitory concentration (MIC), Strain L [9]	minimum inhibitory concentration (MIC), Strain M [10]	minimum inhibitory concentration (MIC), Strain K [11]	minimum inhibitory concentration (MIC), Strain I [12]	also measured
CC[C@H]1OC(=O)[C@H](C)C(=O)[C@H](C)[C@@H](O[C@@H]2O[C@H](C)C[C@H](N(C)C)[C@H]2O)[C@](C)(OC)C[C@@H](C)C(=O)[C@H](C)[C@H]2[C@@H](SCCNC(=O)c3cnc4ccccc4c3)C(=O)O[C@@]21C (single isomer, unassigned) [Example 27, (3R or S, 3aR, 4R or S, 6R, 8R, 9R, 10R, 12R, 15R, 15aS)-15-Ethyloctahydro-8-methoxy-4,6,8,10,12,15a-hexamethyl-3-[[2-[(3-quinolinylcarbonyl)amino]ethyl]thio]-9-[[3,4,6-trideoxy-3-(dimethylamino)-β-D-xylo-hexopyranosyl]oxy]-2H-furo [2,3-c] oxacyclotetradecin-2,5,11,13 (3H,6H,12H)-tetrone]													MIC [1]: ≤ 0.06 µg/mL; MIC [2]: > 32 µg/mL; MIC [3]: ≤ 0.06 µg/mL; MIC [4]: > 32 µg/mL; MIC [5]: ≤ 0.06 µg/mL; MIC [6]: 8 µg/mL (≈ 9.5 µM); MIC [7]: > 32 µg/mL; MIC [8]: 8 µg/mL (≈ 9.5 µM); MIC [9]: 16 µg/mL (≈ 19 µM); MIC [10]: 8 µg/mL (≈ 9.5 µM); MIC [11]: 16 µg/mL (≈ 19 µM); MIC [12]: 16 µg/mL (≈ 19 µM)
CC[C@H]1OC(=O)[C@H](C)C(=O)[C@H](C)[C@@H](O[C@@H]2O[C@H](C)C[C@H](N(C)C)[C@H]2O)[C@](C)(OC)C[C@@H](C)C(=O)[C@H](C)[C@H]2[C@@H](SCCC(=O)Nc3cnc4ccccc4c3)C(=O)O[C@@]21C (single isomer, unassigned) [Example 42]	0.125 µg/mL (≈ 0.148 µM)	>32 µg/mL	0.125 µg/mL (≈ 0.148 µM)	>32 µg/mL	<=0.06 μg/ml	32 µg/mL (≈ 38 µM)	>32 µg/mL	32 µg/mL (≈ 38 µM)	16 µg/mL (≈ 19 µM)	16 µg/mL (≈ 19 µM)	16 µg/mL (≈ 19 µM)	16 µg/mL (≈ 19 µM)	
CC[C@H]1OC(=O)[C@H](C)C(=O)[C@H](C)[C@@H](O[C@@H]2O[C@H](C)C[C@H](N(C)C)[C@H]2O)[C@](C)(OC)C[C@@H](C)C(=O)[C@H](C)[C@H]2[C@@H](SCCNc3ccc(C#N)cn3)C(=O)O[C@@]21C (single isomer, unassigned) [Example 46, (3R or S, 3aR, 4R or S, 6R, 8R, 9R, 10R, 12R, 15R, 15aS) -3-[[2-[(5-Cyanopyridin-2-yl)amino]ethyl]thio]-15-ethyloctahydro-8-methoxy-4,6,8,10,12,15a-hexamethyl-9-[[-3,4,6-trideoxy-3-(dimethylamino)-β-D-xylo-hexopyranosyl]oxy]-2H-furo [2,3-c] oxacyclotetradecin-2,5,11,13 (3H,6H,12H)-tetrone]													MIC [1]: ≤ 0.06 µg/mL; MIC [2]: > 32 µg/mL; MIC [3]: ≤ 0.06 µg/mL; MIC [4]: 32 µg/mL (≈ 40.6 µM); MIC [5]: ≤ 0.06 µg/mL; MIC [6]: ≤ 0.06 µg/mL; MIC [7]: > 32 µg/mL; MIC [8]: 4 µg/mL (≈ 5.07 µM); MIC [9]: 4 µg/mL (≈ 5.07 µM); MIC [10]: 1 µg/mL (≈ 1.27 µM); MIC [11]: 2 µg/mL (≈ 2.53 µM); MIC [12]: 1 µg/mL (≈ 1.27 µM)
CC[C@H]1OC(=O)[C@H](C)C(=O)[C@H](C)[C@@H](O[C@@H]2O[C@H](C)C[C@H](N(C)C)[C@H]2O)[C@](C)(OC)C[C@@H](C)C(=O)[C@H](C)[C@H]2[C@@H](SCCNC(=O)c3ccc4ncccc4c3)C(=O)O[C@@]21C (single isomer, unassigned) [Example 47]	0.125 µg/mL (≈ 0.148 µM)	>32 µg/mL	<=0.06 μg/ml	>32 µg/mL	<=0.06 μg/ml	<=0.06 μg/ml	>32 µg/mL	8 µg/mL (≈ 9.5 µM)	4 µg/mL (≈ 4.75 µM)	2 µg/mL (≈ 2.38 µM)	8 µg/mL (≈ 9.5 µM)	4 µg/mL (≈ 4.75 µM)	
CC[C@H]1OC(=O)[C@H](C)C(=O)[C@H](C)[C@@H](O[C@@H]2O[C@H](C)C[C@H](N(C)C)[C@H]2O)[C@](C)(OC)C[C@@H](C)C(=O)[C@H](C)[C@H]2[C@@H](SCCNC(=O)c3ccc(-n4ccnc4)nc3)C(=O)O[C@@]21C (single isomer, unassigned) [Example 48]	0.25 µg/mL (≈ 0.291 µM)	>32 µg/mL	0.25 µg/mL (≈ 0.291 µM)	>32 µg/mL	<=0.06 μg/ml	>32 µg/mL	>32 µg/mL	>32 µg/mL	16 µg/mL (≈ 18.6 µM)	16 µg/mL (≈ 18.6 µM)	32 µg/mL (≈ 37.3 µM)	16 µg/mL (≈ 18.6 µM)	
CC[C@H]1OC(=O)[C@H](C)C(=O)[C@H](C)[C@@H](O[C@@H]2O[C@H](C)C[C@H](N(C)C)[C@H]2O)[C@](C)(OC)C[C@@H](C)C(=O)[C@H](C)[C@H]2[C@@H](SCCNC(=O)c3cccc4cccnc34)C(=O)O[C@@]21C (single isomer, unassigned) [Example 49]	<=0.06 μg/ml	>32 µg/mL	<=0.06 μg/ml	16 µg/mL (≈ 19 µM)	<=0.06 μg/ml	<=0.06 μg/ml	>32 µg/mL	2 µg/mL (≈ 2.38 µM)	4 µg/mL (≈ 4.75 µM)	4 µg/mL (≈ 4.75 µM)	16 µg/mL (≈ 19 µM)	4 µg/mL (≈ 4.75 µM)	
CC[C@H]1OC(=O)[C@H](C)C(=O)[C@H](C)[C@@H](O[C@@H]2O[C@H](C)C[C@H](N(C)C)[C@H]2O)[C@](C)(OC)C[C@@H](C)C(=O)[C@H](C)[C@H]2[C@@H](SCCNC(=O)c3ccc(-n4cccn4)nc3)C(=O)O[C@@]21C (single isomer, unassigned) [Example 50]	0.25 µg/mL (≈ 0.291 µM)	>32 µg/mL	0.125 µg/mL (≈ 0.146 µM)	>32 µg/mL	<=0.06 μg/ml	32 µg/mL (≈ 37.3 µM)	>32 µg/mL	32 µg/mL (≈ 37.3 µM)	8 µg/mL (≈ 9.32 µM)	4 µg/mL (≈ 4.66 µM)	16 µg/mL (≈ 18.6 µM)	8 µg/mL (≈ 9.32 µM)	
